Experimental data published in paper PMC7560238, “Development of a Thymoquinone Polymeric Anticancer Nanomedicine through Optimization of Polymer Molecular Weight and Nanoparticle Architecture” (Pharmaceutics, 2020).
Like-named read-outs stand apart in the source and are kept apart here.

Experiments:
MCF-7 = assay: Antiproliferative activity, SRB assay, MCF-7; assay type: cell-based, human
Protocol: (§1) Antiproliferative activity was evaluated in various human cancer cell lines (MCF-7, PANC-1, and Caco-2) as well as a normal cell line (human dermal fibroblasts). All cell lines were obtained from the American Type Culture Collection (ATCC, Manassas, VA, USA). MCF-7, PANC-1, and Caco-2 cells were cultured in high glucose Dulbecco’s modified Eagle medium (DMEM; Eurobio Scientific, Les Ulis, France). Fibroblasts were cultured in Iscove’s modified Dulbecco’s medium (IMDM; Eurobio Scientific, Les Ulis, France). All media were supplemented with 10% fetal bovine serum, 1% L-glutamine, and 1% penicillin/streptomycin. The cell lines were maintained at 37 °C in a 5% CO2 atmosphere with 95% humidity. For the cytotoxicity experiments, cells were cultured in 96-well plates at density of 6 × 10^3 cells per well to ensure exponential growth throughout the experimental period and to ensure a linear relationship between absorbance and cell number when analyzed by the sulforhodamine B (SRB) assay. […] One hundred microliters of 10 mM Tris base solution was then added to each well, and the absorbance was recorded on a microplate reader (BioTek Instruments, Winooski, VT, USA) at 570 nm. Results were expressed as % cell viability compared to the control (untreated cells). […]

[1] = Pilot pharmacokinetic study after oral administration; assay type: in vivo; details: male, Balb/c, mouse, mice, oral gavage, 6 mg/kg TQ, plasma
Protocol: Thirty male Balb/c mice (8–10 weeks old) were housed in plastic cages in an air-conditioned room with free access to food and water and were fasted overnight prior to the experiment. On the day of the experiment, animals were divided into two groups and each group was administered a single dose of 6 mg/kg TQ either as suspension in ultrapure water or in the form of TQ NPs (F2-NC) via oral gavage. At 1, 2, 4, 6, and 24 h post-administration, three animals from each group were randomly selected and euthanized by diethyl ether, and blood (~1 mL) was collected from the jugular vein into heparinized plastic tubes. Blood samples were left to sit for 45 min at room temperature then centrifuged at 5500 rpm for 30 min at room temperature. Approximately 0.5 mL of plasma was collected into microtubes, and plasma samples were stored at −80 °C until further analysis. The animal protocol for this work was approved by the Animal Care and Use Committee of Al-Zaytoonah University of Jordan (decision no. 1/5/2019–2020). All work was conducted in accordance with the Helsinki guidelines for animal research and all applicable Jordanian governmental rules and guidelines.
The system consisted of a Shimadzu LCMS-8030 quadrupole mass spectrometer (Kyoto, Japan) equipped with an electrospray ionization (ESI) source, and a Shimadzu Prominence 30A Ultra-Fast Liquid Chromatography system composed of a system controller, degasser, binary pump and auto-sampler. Samples were eluted on a C8 column (5 μm, 50 × 2.1 mm) coupled with a guard column (5 μm, 10 × 2.1 mm) at 20 °C. The isocratic mobile phase consisted of acetonitrile (ACN) and 0.2% formic acid (50:50, v/v) at a flow rate of 0.2 mL min^−1 and an injection volume of 20 μL. TQ samples were ionized by the ESI source in negative ion mode ([…] spray voltage). The dwell time was set to 50 ms and the probe temperature was 400 °C. Quantification was performed using multiple reaction monitoring (MRM) of the transitions at m/z 164.0→134.1.
TQ was dissolved in ACN to make a stock solution at 1 mg mL^−1. TQ working standard solutions were prepared by serial dilutions of the stock solution in the mobile phase. Calibration curve samples were prepared by spiking the appropriate TQ working standard solutions into blank plasma obtained from untreated mice to achieve concentrations from 2 to 1000 ng mL^−1.
To 100 μL of plasma (spiked with calibration curve samples or plasma extracted from treated mice), ethyl acetate (1 mL) was added and vortex mixed for 30 s. […] Samples were then injected into the LC-MS/MS system to quantify the plasma concentration of TQ at each time point. […] Plasma t1/2 was determined by fitting the elimination phase of the plots to the first-order model.

human dermal fibroblasts = assay: Antiproliferative activity, SRB assay, normal cell line; assay type: cell-based; details: Fibroblast, 72 h
Protocol: as §1

Caco-2 = assay: Antiproliferative activity, SRB assay, Caco-2; assay type: cell-based, human
Protocol: as §1

PANC-1 = assay: Antiproliferative activity, SRB assay, PANC-1; assay type: cell-based, human
Protocol: as §1

[2] = design: method as in earlier work; details: cirsiliol from a formulation similar to F2-NC, cited from earlier work

IC50 (MCF-7; Homo sapiens, MCF7, MCF-7, 72 h, SRB assay)	AUC(0-inf) [1]	Cmax [1]	Tmax [1]	half-life ([1]; elimination phase first-order fit)	IC50 (Caco-2; Homo sapiens, Caco-2, 72 h, SRB assay)	IC50 (PANC-1; Homo sapiens, PANC-1, 72 h, SRB assay)	Compound	SI (selectivity index) (MCF-7; IC50 in fibroblasts divided by IC50 in MCF-7)	IC50 (human dermal fibroblasts)	SI (selectivity index) (Caco-2; IC50 in fibroblasts divided by IC50 in Caco-2)	SI (selectivity index) (PANC-1; IC50 in fibroblasts divided by IC50 in PANC-1)	cumulative release ([2]; after 96 h)	cumulative release ([2]; within the first 48 h)
20.5 ± 3.7 µM	4670 ± 508 ng·h/mL	388 ± 41.5 ng/mL	4 h	5 h	30.4 ± 0.5 µM	8.8 ± 2.2 µM	CC1=CC(=O)C(C(C)C)=CC1=O [TQ, 2-isopropyl-5-methylbenzo-1,4-quinone]	2.9	58.9 ± 10.3 µM	1.9	6.7		
							COc1cc2oc(-c3ccc(O)c(O)c3)cc(=O)c2c(O)c1OC [cirsiliol]					~ 40%	~ 20%
